Data as given in patent publication US12440471B2, “Compositions and methods for the treatment of bronchopulmonary dysplasia (BPD) and BPD-associated pulmonary hypertension” (AyuVis Research, Inc., priority 2021, dated 2025).

How the values were obtained:
[1] = PK study in mouse pups by IP and IN routes (plasma, lung tissue); assay type: in vivo
From the text: Pharmacokinetic (PK) Profile of AVR-48 (compound 8). The PK studies of AVR-48 were developed and designed in-house, by high performance liquid chromatography (HPLC), in both mouse and rat pups by IV, IP and IN dosing, to check the bioavailability of the drug formulated as solution, suspension or nanoparticle encapsulation in plasma, broncho-alveolar lavage fluid (BALF) and lung tissues.
The first study was done in the plasma of mouse pups by IP and IN routes to determine the dose range for efficacy. […] For IN dosing, a Tmax of 1 h was found even with a dose of 0.22 mg/kg and rapid clearance was observed by 2 h.

[2] = PK in preterm lambs after IV dosing; assay type: in vivo, lamb
Experimental: A total 9 lambs were used for this study. One dose of Curosurf was given intratracheally to the PT lamb just after birth. Randomized doses of compound AVR-48 (8) (0, 0.1, 0.3, 1.0 and 3.0 mg/kg) were administered intravenously every 12 hr after the initial dose that will be given at 6 hr after delivery to n=2-4 lambs via slow intravenous injection. The beginning treatment at 6 hr post-delivery is selected to represent the human case where neonatologists attempt to allow an infant to breath without mechanical ventilation, if possible, and then begin invasive respiratory support as necessary. Whole blood was drawn from PT lambs at the time of delivery (“pre-dose”), immediately after dosing (IAD), at 15, 30, 45, and 60 min, and at 2, 4, 8, 12, 24, 48, 72, and 96 hr after the initial dose. Plasma extractions and bioanalysis of compound AVR-48 (8) were performed using a qualified bioanalysis method already developed by us. The PK parameters were calculated following both non-Compartmental Pharmacokinetic Modeling and population Pharmacokinetic Modeling as described by Roberts et al previously (Roberts, Stockmann et al. 2016). Blood was collected every 15 min for the first 90 min of postnatal life, followed by every 3 hours for 12 hours and then spaced at 1.5 d, 2.5 d, 3.5 d, 6.5 d, and 9.5 d for analysis of cytokines (Visconti, Senthamaraikannan et al. 2018) and VEGF levels (Albertine, Dahl et al. 2010). The blood samples also were analyzed for hematology and liver enzymes. After 6-7 d of mechanical ventilation, the lambs will be weaned from mechanical ventillation and weaned to non-invasive support for 3 d to ascertain longer-term outcome (Dahl, Bowen et al. 2018). Terminally, the PT lambs were euthanized after 10 days and their heart/lungs and brain were removed. Ex vivo BAL of the right cranial lobe (it has its own bronchus, pulmonary artery and vein) was done for similar analyses. Tracheal aspirates were collected according to the protocol for cytokines, BAL protein, ICAM-1 and VEGF. The spleen was collected to analyze immune cell population, using FACS.

[3] = system: Primary splenocytes of C57BL/6J mice; experiment: Polarization of mouse primary splenocytes, FACS; assay type: cell-based
Experimental: Primary splenocytes of C57BL/6J mice (n=3-5) were treated of AVR 48 for 72 hrs. PMA (200 ng/mL) was used as a positive control. The cells were washed and stained for CD11b and MHC-II and were analyzed by FACS. Dead cells were excluded by Live/dead staining during analysis. It was observed that the expression levels of MHC-II and CD11b increased upon AVR48 stimulation in a dose dependent manner in splenocytes. Monocytes were further analyzed for Ly6c. As described by (Swirski et al, J Clin Invest, 2007, 117(1):195-205. doi: 10.1172/JCI29950), spleen cells with LY6c Hi are considered as inflammatory whereas Ly6c low as resident and anti-inflammatory (FIG. 24A). Next, live singlet cells that were CD11b hi and CD11c low, were gated for F4/80 and MHC-II expression. Cells having increased expression of F4/80 and MHC-II were considered as macrophages whereas cells having low expression of F4/80 were considered as monocytes.

[4] = C57BL/6J, mouse, plasma, 10 mg/kg IP
[5] = sheep, plasma, single IV dose 3.0 mg/kg/dose saline solution, n=3 preterm lambs

CC(=O)N[C@@H]1C(Oc2ccc([N+](=O)[O-])cc2)OC(CO)C(O)C1O (stereo partly shown) [AVR-48]
Tmax ([1]; C57BL/6J, mouse, intraperitoneal, lung tissue, 10 mg/kg): 5 min
Cmax ([1]; C57BL/6J, mouse, intraperitoneal, plasma, single IV or IP injection of 10 mg/kg): 5.78 ± 0.91 µM
Tmax ([1]; C57BL/6J, mouse, plasma, other: intranasal (IN), IN dosing, 0.22 mg/kg): 60 min
Tmax ([1]; C57BL/6J, mouse, plasma, 0.22 mg/kg IP): 5 min
Tmax [1, 4]: 5 min
half-life [1, 4]: 21.6 min
time by which rapid clearance was observed ([1]; IN dosing, 0.22 mg/kg): ≤ 2 h
clearance from circulation ([1]; following IP injection): cleared from circulation rapidly
bioavailability in plasma and lungs, IN vs IP ([1]; solution formulation): similar
drug accumulation ([2]; repeat IV dosing for 7 days): no drug accumulation
Cmax [2, 5]: 12.2 ± 5.6 µM
half-life [2, 5]: 33.6 min
plasma concentration profile ([2]; single IV dose 3.0 mg/kg/dose): linear decline in drug concentration
resident/anti-inflammatory macrophages (Ly6c hi/low) ([3]; 48-72 h): produces more resident/anti-inflammatory macrophages
expression level of CD11b ([3]; 72 hrs, dose dependent manner): increased
expression level of MHC-II ([3]; 72 hrs, dose dependent manner): increased
